Assay results: US11267800B2, “Cyclohexyl acid triazole azines as LPA antagonists” (BRISTOL-MYERS SQUIBB COMPANY, priority 2017, dated 2022)

Target: T1, human LPA1 (Homo sapiens, UniProt Q92633)
T1 construct: expressed in transfected cells; host or cells: Chinese hamster ovary (CHO) cells
Experiment: LPA1 functional antagonist assay (calcium flux)
Assay type: cell-based
Settings: CHO cells overexpressing human LPA1; inhibition of calcium flux induced by 10 nM LPA; read-out: hLPA1 IC50
Method in brief: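 IC50 values come from 4-parameter logistic fits and mark 50% block of the calcium flux evoked by 10 nM LPA. Human LPA1-overexpressing CHO cells were calcium-dye loaded at 37 °C, then given test compound (0.08 nM–5 μM, 0.5% DMSO, HEPES-buffered HBSS with 0.1% fatty-acid-free BSA) for 20 min at room temperature before agonist.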

T1 sequence (Q92633 whole entry): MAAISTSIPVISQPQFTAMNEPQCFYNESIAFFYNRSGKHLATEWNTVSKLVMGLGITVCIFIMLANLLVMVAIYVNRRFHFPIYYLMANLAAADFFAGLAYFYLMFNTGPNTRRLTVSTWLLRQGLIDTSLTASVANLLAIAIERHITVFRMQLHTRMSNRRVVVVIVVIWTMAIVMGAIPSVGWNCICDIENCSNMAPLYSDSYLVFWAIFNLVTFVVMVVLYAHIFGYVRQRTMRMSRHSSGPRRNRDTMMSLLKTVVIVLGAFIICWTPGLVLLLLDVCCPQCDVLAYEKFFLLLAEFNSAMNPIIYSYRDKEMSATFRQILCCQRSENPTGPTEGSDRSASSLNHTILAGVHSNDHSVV

| Structure (SMILES) | IC50 |
| --- | --- |
| CCCc1cc(OCc2c(-c3ccc(O[C@H]4CCC[C@H](C(=O)O)C4)c(C)n3)nnn2C)ncn1 [Example 294] | 0.085 µM |
| Cc1nc(-c2nnn(C)c2COc2cc(C(F)(F)F)ncn2)ccc1O[C@H]1CCC[C@H](C(=O)O)C1 [Example 295] | 0.021 µM |
| Cc1nc(-c2nnn(C)c2COc2cc(C(F)F)ncn2)ccc1O[C@H]1CCC[C@H](C(=O)O)C1 [Example 296] | 0.016 µM |
| [2H]C([2H])([2H])Oc1cc(OCc2c(-c3ccc(O[C@H]4CCC[C@H](C(=O)O)C4)c(C)n3)nnn2C)ncn1 [Example 297] | 0.016 µM |
| Cc1nc(-c2nnn(C)c2COc2cc(N3CCCC3)ncn2)ccc1O[C@H]1CCC[C@H](C(=O)O)C1 [Example 298] | 0.121 µM |
| COCc1cc(OCc2c(-c3ccc(O[C@H]4CCC[C@H](C(=O)O)C4)c(C)n3)nnn2C)ncn1 [Example 299] | 0.067 µM |
| CCc1cncc(OCc2c(-c3ccc(O[C@H]4CCC[C@H](C(=O)O)C4)c(C)n3)nnn2C)n1 [Example 300] | 0.031 µM |
| CCc1ccnc(OCc2c(-c3ccc(O[C@H]4CCC[C@H](C(=O)O)C4)c(C)n3)nnn2C)n1 [Example 301] | 0.0079 µM |
| Cc1nc(-c2nnn(C)c2COc2nccc(C3CC3)n2)ccc1O[C@H]1CCC[C@H](C(=O)O)C1 [Example 302] | 0.0075 µM |
| Cc1nc(-c2nnn(C)c2COc2cc(NC3CC3)ncn2)ccc1O[C@H]1CCC[C@H](C(=O)O)C1 [Example 303] | 0.064 µM |
| Cc1nc(-c2nnn(C)c2COc2cc(Cl)ncn2)ccc1O[C@H]1CCC[C@H](C(=O)O)C1 [Example 304] | 0.066 µM |
| Cc1nc(-c2nnn(C)c2COc2nccc(C(F)(F)F)n2)ccc1O[C@H]1CCC[C@H](C(=O)O)C1 [Example 305] | 0.011 µM |
| CCc1nccc(OCc2c(-c3ccc(O[C@H]4CCC[C@H](C(=O)O)C4)c(C)n3)nnn2C)n1 [Example 306] | 0.036 µM |
| COc1cncc(OCc2c(-c3ccc(O[C@H]4CCC[C@H](C(=O)O)C4)c(C)n3)nnn2C)n1 [Example 307] | 2.99 µM |
| Cc1nc(-c2nnn(C)c2COc2ccnc(C(F)F)c2)ccc1O[C@H]1CCC[C@H](C(=O)O)C1 [Example 308] | 0.06 µM |
| COc1cncc(OCc2c(-c3ccc(O[C@H]4CCC[C@H](C(=O)O)C4)c(C)n3)nnn2C)c1 [Example 309] | 3.24 µM |
| Cc1nc(-c2nnn(C)c2COc2nccc(C(F)F)n2)ccc1O[C@H]1CCC[C@H](C(=O)O)C1 [Example 310] | 0.017 µM |
| CCc1ncnc(OCc2c(-c3ccc(O[C@H]4CCC[C@H](C(=O)O)C4)c(C)n3)nnn2C)n1 [Example 311] | 0.044 µM |
| Cc1nc(-c2nnn(C)c2CNc2cc(C(F)(F)F)ncn2)ccc1O[C@H]1CCC[C@H](C(=O)O)C1 [Example 312] | 0.139 µM |
| Cc1nc(-c2nnn(C)c2COc2cc(-c3ccc(F)cc3)ncn2)ccc1O[C@H]1CCC[C@H](C(=O)O)C1 [Example 313] | 0.041 µM |
| Cc1nc(-c2nnn(C)c2COc2cc(-n3cnnc3C)ncn2)ccc1O[C@H]1CCC[C@H](C(=O)O)C1 [Example 314] | 0.416 µM |
| Cc1nc(-c2nnn(C)c2COc2cc(C(F)F)ccn2)ccc1O[C@H]1CCC[C@H](C(=O)O)C1 [Example 315] | 0.022 µM |

| Structure (SMILES) | IC50 |
| --- | --- |
| Cc1nc(-c2nnn(C)c2COc2nccc(-c3cnccn3)n2)ccc1O[C@H]1CCC[C@H](C(=O)O)C1 [Example 316] | 0.263 µM |
| Cc1nc(-c2nnn(C)c2COc2nccc(-c3ccccn3)n2)ccc1O[C@H]1CCC[C@H](C(=O)O)C1 [Example 317] | 0.072 µM |
| CCc1cc(NCc2c(-c3ccc(O[C@H]4CCC[C@H](C(=O)O)C4)c(C)n3)nnn2C)ncn1 [Example 318] | 0.159 µM |
| Cc1nc(-c2nnn(C)c2CNc2nccc(COC(C)C)n2)ccc1O[C@H]1CCC[C@H](C(=O)O)C1 [Example 319] | 0.057 µM |
| Cc1nc(-c2nnn(C)c2COc2nccc(COC(C)C)n2)ccc1O[C@H]1CCC[C@H](C(=O)O)C1 [Example 320] | 0.09 µM |
| Cc1nc(-c2nnn(C)c2COc2nccc(COC3CC3)n2)ccc1O[C@H]1CCC[C@H](C(=O)O)C1 [Example 321] | 0.037 µM |
| Cc1nc(-c2nnn(C)c2CNc2nccc(COC3CC3)n2)ccc1O[C@H]1CCC[C@H](C(=O)O)C1 [Example 322] | 0.044 µM |
| Cc1nc(-c2nnn(C)c2COc2cc(COC3CC3)ccn2)ccc1O[C@H]1CCC[C@H](C(=O)O)C1 [Example 323] | 0.071 µM |
| CCCOCc1ccnc(NCc2c(-c3ccc(O[C@H]4CCC[C@H](C(=O)O)C4)c(C)n3)nnn2C)n1 [Example 324] | 0.042 µM |
| COCc1ccnc(OCc2c(-c3ccc(O[C@H]4CCC[C@H](C(=O)O)C4)c(C)n3)nnn2C)c1 [Example 325] | 0.025 µM |
| Cc1nc(-c2nnn(C)c2CNc2nccc(-n3cccn3)n2)ccc1O[C@H]1CCC[C@H](C(=O)O)C1 [Example 326] | 0.099 µM |
| Cc1nc(-c2nnn(C)c2COc2nccc(-n3cccn3)n2)ccc1O[C@H]1CCC[C@H](C(=O)O)C1 [Example 327] | 0.335 µM |
| Cc1nc(-c2nnn(C)c2CN(C)c2ncnc(C(C)C)n2)ccc1O[C@H]1CCC[C@H](C(=O)O)C1 [Example 328, (1S,3S)-3-((6-(5-(((4-Isopropyl-1,3,5-triazin-2-yl)(methyl)amino)methyl)-1-methyl-1H-1,2,3-triazol-4-yl)-2-methylpyridin-3-yl)oxy)cyclohexane-1l-carboxylic acid] | 0.211 µM |
| Cc1nc(-c2nnn(C)c2CNc2cc(OCC(C)C)ncn2)ccc1O[C@H]1CCC[C@H](C(=O)O)C1 [Example 329, (1S,3S)-3-((6-(5-(((6-Isobutoxypyrimidin-4-yl)amino)methyl)-1-methyl-1H-1,2,3-triazol-4-yl)-2-methylpyridin-3-yl)oxy)cyclohexane-1-carboxylicacid] | 0.082 µM |
| Cc1nc(-c2nnn(C)c2COc2nccc(-c3ccccc3)n2)ccc1O[C@H]1CCC[C@H](C(=O)O)C1 [Example 330, (1S,3S)-3-((2-Methyl-6-(1-methyl-5-(((4-phenylpyrimidin-2-yl)oxy)methyl)-1H-1,2,3-triazol-4-yl)pyridin-3-yl)oxy)cyclohexane-1-carboxylic acid] | 0.033 µM |
| Cc1nc(-c2nnn(C)c2COc2nccc(C(C)(C)C)n2)ccc1O[C@H]1CCC[C@H](C(=O)O)C1 [Example 332] | 0.029 µM |
| Cc1nc(-c2nnn(C)c2CNc2ncnc(C(C)C)n2)ccc1O[C@H]1CCC[C@H](C(=O)O)C1 [Example 333] | 0.043 µM |
| Cc1nc(-c2nnn(C)c2CNc2nccc(OCC3CC3)n2)ccc1O[C@H]1CCC[C@H](C(=O)O)C1 [Example 334] | 0.019 µM |
| Cc1nc(-c2nnn(C)c2CNc2nccc(OCC3(C)CC3)n2)ccc1O[C@H]1CCC[C@H](C(=O)O)C1 [Example 335] | 0.018 µM |
| Cn1nnc(-c2ccc(O[C@H]3CCC[C@H](C(=O)O)C3)cn2)c1CNc1nccc(OCC2(C)CC2)n1 [Example 336] | 0.028 µM |
| Cc1nc(-c2nnn(C)c2CNc2nccc(OCC3(F)CC3)n2)ccc1O[C@H]1CCC[C@H](C(=O)O)C1 [Example 337] | 0.112 µM |
| Cc1nc(-c2nnn(C)c2COc2nccc(N3CCCC3)n2)ccc1O[C@H]1CCC[C@H](C(=O)O)C1 [Example 338] | 0.021 µM |

| Structure (SMILES) | IC50 |
| --- | --- |
| Cc1nc(-c2nnn(C)c2COc2cncc(C(F)(F)F)n2)ccc1O[C@H]1CCC[C@H](C(=O)O)C1 [Example 339] | 0.099 µM |
| Cc1nc(-c2nnn(C)c2COc2cncc(Oc3ccccc3)n2)ccc1O[C@H]1CCC[C@H](C(=O)O)C1 [Example 340] | 0.025 µM |
| Cc1nc(-c2nnn(C)c2COc2ccnc(C(F)(F)F)n2)ccc1O[C@H]1CCC[C@H](C(=O)O)C1 [Example 341] | 0.016 µM |
| Cc1cc(OCc2c(-c3ccc(O[C@H]4CCC[C@H](C(=O)O)C4)c(C)n3)nnn2C)ncn1 [Example 342] | 0.118 µM |
| Cc1nc(-c2nnn(C)c2COc2nccc(N(C)C)n2)ccc1O[C@H]1CCC[C@H](C(=O)O)C1 [Example 343] | 0.1 µM |
| COc1nccc(OCc2c(-c3ccc(O[C@H]4CCC[C@H](C(=O)O)C4)c(C)n3)nnn2C)n1 [Example 344] | 0.378 µM |
| Cc1nc(-c2nnn(C)c2COc2nccc(C(C)C)n2)ccc1O[C@H]1CCC[C@H](C(=O)O)C1 [Example 345] | 0.0095 µM |
| COc1ccnc(OCc2c(-c3ccc(O[C@H]4CCC[C@H](C(=O)O)C4)c(C)n3)nnn2C)n1 [Example 346] | 0.077 µM |
| CCc1ccnc(OCc2c(-c3ccc(O[C@H]4CCC[C@H](C(=O)O)C4)cn3)nnn2C)n1 [Example 347] | 0.073 µM |
| Cn1nnc(-c2ccc(O[C@H]3CCC[C@H](C(=O)O)C3)cn2)c1COc1nccc(C2CC2)n1 [Example 348] | 0.118 µM |
| Cc1nc(-c2nnn(C)c2COc2nccc(N3CCC3)n2)ccc1O[C@H]1CCC[C@H](C(=O)O)C1 [Example 349] | 1.22 µM |
| Cc1nc(-c2nnn(C)c2COc2ccnc(N3CCC3)n2)ccc1O[C@H]1CCC[C@H](C(=O)O)C1 [Example 350] | 0.565 µM |
| COc1cc(OCc2c(-c3ccc(O[C@H]4CCC[C@H](C(=O)O)C4)cn3)nnn2C)ncn1 [Example 351] | 0.034 µM |
| CCc1cc(OCc2c(-c3ccc(O[C@H]4CCC[C@H](C(=O)O)C4)cn3)nnn2C)ncn1 [Example 352] | 0.038 µM |
| Cn1nnc(-c2ccc(O[C@H]3CCC[C@H](C(=O)O)C3)cn2)c1COc1cc(C(F)F)ncn1 [Example 353] | 0.081 µM |
| Cc1nc(-c2nnn(C)c2COc2cc(C(F)(F)F)nc(N3CCCC3)n2)ccc1O[C@H]1CCC[C@H](C(=O)O)C1 [Example 354] | 0.168 µM |
| Cc1nc(-c2nnn(C)c2COc2cc(-c3ccccn3)ncn2)ccc1O[C@H]1CCC[C@H](C(=O)O)C1 [Example 355] | 0.144 µM |
| Cc1nc(-c2nnn(C)c2COc2cc(N3CCOCC3)ncn2)ccc1O[C@H]1CCC[C@H](C(=O)O)C1 [Example 356] | 0.447 µM |
| Cc1nc(-c2nnn(C)c2COc2cc(-n3cncn3)ncn2)ccc1O[C@H]1CCC[C@H](C(=O)O)C1 [Example 357] | 0.12 µM |
| Cc1nc(-c2nnn(C)c2COc2cc(-n3cccc3)ncn2)ccc1O[C@H]1CCC[C@H](C(=O)O)C1 [Example 358] | 0.039 µM |
